Measurements taken from article PMC7413254 (Nature Communications, 2020).

What was measured:
Type in all cases: cell-based
PfCRT^Ecu1110 [1] = target: T1, PfCRT^Ecu1110 (Plasmodium falciparum, UniProt Q9N623, A220S/I356L/K76T/N326D); assay: [3H]CQ uptake into Xenopus oocytes, cis-inhibition by unlabelled solute; conditions: for PfCRT-mediated [3H]CQ transport, cis-inhibition (% PfCRTEcu1110 control): PfCRTEcu1110 oocytes, background [3H]CQ accumulation subtracted, normalised to oocyte type control; for [3H]CQ transport (% PfCRTEcu1110 control), cis-inhibition, PfCRTEcu1110: PfCRT-mediated component (background subtracted), sheet title says normalised to PfCRTDd2 control, mean ± SEM, SEM
Excerpt: (§1) The orientation of PfCRT in the parasite’s DV membrane, and also in the oocyte plasma membrane, is such that its N- and C-termini extend into the cytosol. The oocytes were suspended in a reaction buffer adjusted to pH 5.5 to mimic the pH of the DV lumen[1],[2]. In this scenario, the transport of a substrate via PfCRT from the acidic extracellular solution into the oocyte cytosol[15] is analogous to the parasite’s PfCRT-mediated efflux of a substrate from the acidic DV and into the cytosol. Unless specified otherwise, this is the direction in which substrate transport was measured in the oocyte assays.
(§2) Unless specified otherwise, the transport assays were conducted over 1.5 h at 27.5 °C and the reaction buffer was ND96 (96 mM NaCl, 2 mM KCl, 1 mM MgCl2, 1.8 mM CaCl2, 10 mM MES and 10 mM Tris-base) at pH 5.5.
(§3) Ten oocytes were washed twice with the relevant ND96 buffer. […] The assay was terminated by removing the reaction buffer and washing the oocytes with ice-cold ND96 buffer. The oocytes were lysed in 10% (w/v) sodium dodecyl sulfate (SDS) and the radioactivity accumulated within each oocyte was measured with a MicroBeta^2 microplate liquid scintillation analyser (PerkinElmer).
(§4) At least four independent experiments were performed (on different days and using oocytes from different frogs), and within each experiment measurements were made from ten oocytes per treatment.

PfCRT^Dd2 [2] = target: T2, PfCRT^Dd2 (Plasmodium falciparum, UniProt Q9N623, A220S/I356T/K76T/M74I/N326S/N75E/Q271E/R371I); assay: as above; conditions: PfCRTDd2 oocytes, background [3H]CQ accumulation subtracted, normalised to oocyte type control
Excerpt: as §1, §2, §3, §4

PfCRT^Ecu1110 [3] = target: T1, PfCRT^Ecu1110; assay: cell-based; conditions: for PfCRT-mediated [3H]CQ transport, trans-stimulation (% PfCRTEcu1110 control): PfCRTEcu1110 oocytes, normalised to oocyte type control; for [3H]CQ transport (% PfCRTDd2 control), trans-stimulation, PfCRTEcu1110: PfCRT-mediated component (background subtracted), sheet title says normalised to PfCRTDd2 control, mean ± SEM, SEM
Protocol: as §2
(§5) The intracellular concentrations were calculated using previous estimates of the volume of stage V–VI oocytes (~400 nL[60]). […] The oocytes were injected with VF-6 suspended in 25 nL ND96 buffer adjusted to pH 5.0, 5.5, 6.0 or 7.0, which corresponded to the injection of 2.5–250 fmol of H^+. The Na^+-dependence of the trans-stimulatory effect of VF-6 was assessed by injecting the oocytes with VF-6 suspended in ND96 buffer (pH 5.5) or a Na^+-free version of this buffer (the Na^+ was replaced with choline).
as §4

PfCRT^3D7 = PfCRT^3D7 (Plasmodium falciparum, UniProt Q8IBZ9); assay: cell-based; conditions: PfCRT3D7 oocytes, normalised to oocyte type control
Protocol: as §2, §5, §4

PfCRT^Dd2 [4] = target: T2, PfCRT^Dd2; assay: cell-based; conditions: for PfCRT-mediated [3H]CQ transport, trans-stimulation (% PfCRTDd2 control): PfCRTDd2 oocytes, normalised to oocyte type control; for [3H]CQ transport (% PfCRTDd2 control), trans-stimulation, PfCRTDd2: PfCRT-mediated component (background subtracted), mean ± SEM, SEM
Protocol: as §2, §5, §4

[5] = [test solute]i = 5 mM (intracellular)
[6] = [test solute]i = 45 mM (intracellular; 30 mM for some solutes due to solubility)
[7] = [test solute]i = 5 mM (injected)
[8] = [test solute]i = 45 mM (30 mM for some solutes due to solubility)

T2 sequence (Q9N623 whole entry A220S/I356T/K76T/M74I/N326S/N75E/Q271E/R371I): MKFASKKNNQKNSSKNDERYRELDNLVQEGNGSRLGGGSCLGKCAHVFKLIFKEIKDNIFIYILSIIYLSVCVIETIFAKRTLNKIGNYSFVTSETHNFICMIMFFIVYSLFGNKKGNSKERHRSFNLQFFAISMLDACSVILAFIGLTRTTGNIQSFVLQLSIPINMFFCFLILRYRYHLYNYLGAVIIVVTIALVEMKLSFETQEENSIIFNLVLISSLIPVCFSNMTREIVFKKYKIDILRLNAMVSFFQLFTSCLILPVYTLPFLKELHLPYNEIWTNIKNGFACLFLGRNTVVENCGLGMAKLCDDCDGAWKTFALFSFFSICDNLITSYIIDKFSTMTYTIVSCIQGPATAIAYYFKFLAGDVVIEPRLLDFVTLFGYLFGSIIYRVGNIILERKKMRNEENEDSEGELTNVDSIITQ
Chain of PfCRT^3D7 (Q8IBZ9 59-398): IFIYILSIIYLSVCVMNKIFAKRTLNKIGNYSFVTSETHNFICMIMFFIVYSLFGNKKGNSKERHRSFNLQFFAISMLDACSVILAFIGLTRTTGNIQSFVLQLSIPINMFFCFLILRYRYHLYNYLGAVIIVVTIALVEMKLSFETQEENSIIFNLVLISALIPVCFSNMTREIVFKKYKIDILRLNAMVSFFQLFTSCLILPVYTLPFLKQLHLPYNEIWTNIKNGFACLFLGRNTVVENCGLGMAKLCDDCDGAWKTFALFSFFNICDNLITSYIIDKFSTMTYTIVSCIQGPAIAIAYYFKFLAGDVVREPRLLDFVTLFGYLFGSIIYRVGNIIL
T1 sequence (Q9N623 whole entry A220S/I356L/K76T/N326D): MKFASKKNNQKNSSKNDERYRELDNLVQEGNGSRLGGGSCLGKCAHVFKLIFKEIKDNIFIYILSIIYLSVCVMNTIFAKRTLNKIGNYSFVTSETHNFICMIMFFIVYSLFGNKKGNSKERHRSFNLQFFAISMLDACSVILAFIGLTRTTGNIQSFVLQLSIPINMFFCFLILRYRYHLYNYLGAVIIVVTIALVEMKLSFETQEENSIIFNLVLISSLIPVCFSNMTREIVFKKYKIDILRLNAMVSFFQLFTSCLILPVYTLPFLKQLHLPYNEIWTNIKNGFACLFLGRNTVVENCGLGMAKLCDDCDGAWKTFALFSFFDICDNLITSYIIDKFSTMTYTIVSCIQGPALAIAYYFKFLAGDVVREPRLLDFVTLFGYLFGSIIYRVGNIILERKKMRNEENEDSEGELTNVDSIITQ

| Substance | PfCRT-mediated [3H]CQ transport, cis-inhibition (% PfCRTEcu1110 control) (PfCRT^Ecu1110 [1]; [test solute] = 0.5 mM) | PfCRT-mediated [3H]CQ transport, cis-inhibition (% PfCRTEcu1110 control) (PfCRT^Ecu1110 [1]; [test solute] = 1 mM) | PfCRT-mediated [3H]CQ transport, cis-inhibition (% PfCRTEcu1110 control) (PfCRT^Ecu1110 [1]; [test solute] = 2 mM) | [3H]CQ transport (% PfCRTEcu1110 control), cis-inhibition, PfCRTEcu1110 (PfCRT^Ecu1110 [1]; [test solute] = 0.5 mM) | [3H]CQ transport (% PfCRTEcu1110 control), cis-inhibition, PfCRTEcu1110 (PfCRT^Ecu1110 [1]; [test solute] = 1 mM) | [3H]CQ transport (% PfCRTEcu1110 control), cis-inhibition, PfCRTEcu1110 (PfCRT^Ecu1110 [1]; [test solute] = 2 mM) | PfCRT-mediated [3H]CQ transport, cis-inhibition (% PfCRTDd2 control) (PfCRT^Dd2 [2]; [test solute] = 0.5 mM) | PfCRT-mediated [3H]CQ transport, cis-inhibition (% PfCRTDd2 control) (PfCRT^Dd2 [2]; [test solute] = 1 mM) | PfCRT-mediated [3H]CQ transport, cis-inhibition (% PfCRTDd2 control) (PfCRT^Dd2 [2]; [test solute] = 2 mM) | PfCRT-mediated [3H]CQ transport, trans-stimulation (% PfCRTEcu1110 control) (PfCRT^Ecu1110 [3]; [5]) | PfCRT-mediated [3H]CQ transport, trans-stimulation (% PfCRTEcu1110 control) (PfCRT^Ecu1110 [3]; [6]) | [3H]CQ transport (% PfCRTDd2 control), trans-stimulation, PfCRTEcu1110 (PfCRT^Ecu1110 [3]; [7]) | [3H]CQ transport (% PfCRTDd2 control), trans-stimulation, PfCRTEcu1110 (PfCRT^Ecu1110 [3]; [8]) | PfCRT-mediated [3H]CQ transport, trans-stimulation (% PfCRT3D7 control) (PfCRT^3D7; [5]) | PfCRT-mediated [3H]CQ transport, trans-stimulation (% PfCRT3D7 control) (PfCRT^3D7; [6]) | PfCRT-mediated [3H]CQ transport, trans-stimulation (% PfCRTDd2 control) (PfCRT^Dd2 [4]; [5]) | PfCRT-mediated [3H]CQ transport, trans-stimulation (% PfCRTDd2 control) (PfCRT^Dd2 [4]; [6]) | [3H]CQ transport (% PfCRTDd2 control), trans-stimulation, PfCRTDd2 (PfCRT^Dd2 [4]; [7]) | [3H]CQ transport (% PfCRTDd2 control), trans-stimulation, PfCRTDd2 (PfCRT^Dd2 [4]; [8]) |
| --- | --- | --- | --- | --- | --- | --- | --- | --- | --- | --- | --- | --- | --- | --- | --- | --- | --- | --- | --- |
| EFTPPVQ [EQ-7] | 44 ± 1.4 % PfCRTEcu1110 control | 32 ± 2.4 % PfCRTEcu1110 control | 22 ± 2.9 % PfCRTEcu1110 control | 14 ± 0.6 % PfCRTEcu1110 control | 10 ± 0.5 % PfCRTEcu1110 control | 8.0 ± 0.03 % PfCRTEcu1110 control | 40 ± 1.1 % PfCRTDd2 control | 28 ± 0.2 % PfCRTDd2 control | 17 ± 1.1 % PfCRTDd2 control | 129 ± 4.5 % PfCRTEcu1110 control | 136 ± 2.7 % PfCRTEcu1110 control | 39 ± 1.5 % PfCRTEcu1110 control | 41 ± 1.8 % PfCRTEcu1110 control | 136 ± 4.2 % PfCRT3D7 control | 188 ± 4.7 % PfCRT3D7 control | 96 ± 3.3 % PfCRTDd2 control | 112 ± 3.2 % PfCRTDd2 control | 96 ± 3.3 % PfCRTDd2 control | 112 ± 3.2 % PfCRTDd2 control |
| EFTPPVQA [EA-8] | 58 ± 1.1 % PfCRTEcu1110 control | 43 ± 1.6 % PfCRTEcu1110 control | 29 ± 2.5 % PfCRTEcu1110 control |  |  |  |  | 27 ± 0.9 % PfCRTDd2 control | 18 ± 0.2 % PfCRTDd2 control | 127 ± 3.1 % PfCRTEcu1110 control | 136 ± 4.1 % PfCRTEcu1110 control |  |  | 131 ± 2.9 % PfCRT3D7 control | 174 ± 3.3 % PfCRT3D7 control | 97 ± 2.2 % PfCRTDd2 control | 98 ± 1.9 % PfCRTDd2 control |  |  |
| FPHFDLS [FS-7] | 39 ± 2.5 % PfCRTEcu1110 control | 31 ± 1.7 % PfCRTEcu1110 control | 17 ± 0.8 % PfCRTEcu1110 control | 12 ± 0.4 % PfCRTEcu1110 control | 10 ± 0.2 % PfCRTEcu1110 control | 5.0 ± 0.04 % PfCRTEcu1110 control | 30 ± 3.7 % PfCRTDd2 control | 19 ± 0.7 % PfCRTDd2 control | 11 ± 0.7 % PfCRTDd2 control | 99 ± 3.6 % PfCRTEcu1110 control | 98 ± 4.3 % PfCRTEcu1110 control | 30 ± 1.3 % PfCRTEcu1110 control | 30 ± 1.4 % PfCRTEcu1110 control | 96 ± 4.6 % PfCRT3D7 control | 99 ± 2.7 % PfCRT3D7 control | 95 ± 4.2 % PfCRTDd2 control | 98 ± 4.1 % PfCRTDd2 control | 95 ± 4.2 % PfCRTDd2 control | 98 ± 4.1 % PfCRTDd2 control |
| FSDGLA [FA-6] | 60 ± 0.7 % PfCRTEcu1110 control | 42 ± 2.5 % PfCRTEcu1110 control | 32 ± 0.5 % PfCRTEcu1110 control | 19 ± 0.1 % PfCRTEcu1110 control |  | 10 ± 0.3 % PfCRTEcu1110 control | 29 ± 0.1 % PfCRTDd2 control | 17 ± 0.7 % PfCRTDd2 control | 10 ± 0.3 % PfCRTDd2 control | 98 ± 4.5 % PfCRTEcu1110 control | 96 ± 4.7 % PfCRTEcu1110 control | 30 ± 1.4 % PfCRTEcu1110 control | 29 ± 1.3 % PfCRTEcu1110 control | 134 ± 3.2 % PfCRT3D7 control | 190 ± 4.6 % PfCRT3D7 control | 102 ± 6.2 % PfCRTDd2 control | 98 ± 4.2 % PfCRTDd2 control | 102 ± 6.2 % PfCRTDd2 control | 98 ± 4.2 % PfCRTDd2 control |
